Assay results as given in US11779600B2, “Methods of treating or preventing alzheimer's disease and associated conditions” (CEDARS-SINAI MEDICAL CENTER, priority 2016, dated 2023).

Tested on: infiltrating OPN+CD45high cells
Test: OPN+CD45high infiltrating cell count in ADtg mouse brain
Type: in vivo
Settings: cell count per section, vs PBS controls (FIG. 13F)
Method: ADtg mice (10 months old) received subcutaneous injections of GA [also known as Cop-1 and Copaxone®; 100 μg in phosphate-buffered saline (PBS)] or PBS alone (control group) twice a week for 1 week and then once a week for 8 weeks. For evaluation of innate immune infiltration to the brain by flow cytometry, 10-month-old ADtg mice received subcutaneous injections of GA (100 mg in PBS) or PBS alone twice a week for 1 week and then once a week for 3 weeks. At the end of the study, all mice were anaesthetized and then perfused with ice-cold PBS with 0.5 mM EDTA, after which their organs were collected and analyzed or fixed in 2.5% paraformaldehyde (Sigma-Aldrich), and cryoprotected with 30% sucrose for further histological analysis.
CD115^+ monocytes from mice donors were isolated as previously reported (Koronyo et al., Brain: a journal of neurology 2015,138:2399-2422). In brief, bone marrow cells were harvested from the femora, tibiae, and humeri and enriched for mononuclear cells on a Ficoll-Paque® PLUS (17-1440-03, GE Healthcare) density gradient. […]
The number and area (μm^2) of OPN+ cells, Iba1^+CD45^hi cells, GFAP^+ cells, Thio-S^+ amyloid-βplaques and 4G8^+ amyloid-βplaques were determined by examining four to six coronal sections per mouse at 150-μm intervals over an area covering both the hippocampal and cortical (including entorhinal and cingulate cortex) regions. […]

## glatiramer acetate [GA]
  increase in number of infiltrating OPN+CD45high cells: 1.5 fold
